Experimental data reported in article PMC12155888, “Design, Synthesis, and Antitumor Biological Evaluation of Galaxamide and Its Analogs” (Molecules, 2025).
Values after ≈ are worked out from the molar mass of the structure shown. Values joined by “and” are separate entries in the source; they are usually repeats but may differ in a detail not shown here. Equal entries are not always repeated. Where two headings read alike, the source gives them in different places. Where a SMILES comes first, the peptide text is derived from it. [ ]: non-standard residue; d: D form. dChg = N[C@@H](C(=O)O)C1CCCCC1; dPhg = N[C@@H](C(=O)O)c1ccccc1; NMeL = CN[C@@H](CC(C)C)C(=O)O; dNMeL = CN[C@H](CC(C)C)C(=O)O

Legend:
[1] = tested on: human hepatocellular carcinoma Hep G2; design: method as in PMID 18816120; conditions: human hepatocellular carcinoma Hep G2 cell line; cited from earlier work
K562 = format: cell-based, human
Method: To examine the anticancer activities of galaxamide and its analogs, two different human cancer cell lines, human non-small-cell lung cancer cells (A549) and human chronic myelogenous leukemia (K562), and one normal human cell line, human immortal embryonic kidney cells (293T), were selected for the in vitro cell models. […] The synthetic galaxamide (Gala01) was also tested as the standard. […] A549, K562, and 293T cells were purchased from the Cell Resource Center of the Institute of Basic Medicine, Chinese Academy of Medical Sciences. Both A549 cells and K562 cells were cultured in RPMI (full name: Roswell Park Memorial Institute) 1640 medium containing 10% FBS (full name: fetal bovine serum, product number: C04001-500, Vivacell, Shanghai, China) and 1% p/s (full name: penicillin-streptomycin, product number: 15140122, Gbico, Waltham, MA, USA) for culture. The 293T cells were all cultured in DMEM (full name: Dulbecco's Modified Eagle Medium; cat. no.: C3113-0500, Vivacell, ShanghaiChina; containing 10% FBS and 1% p/s) for cultivation. […] Multiple types of cells were seeded into 96-well plates and treated with different concentrations of […]26 for 48 h after they returned to normal. Then, the relative activity of the cells was detected according to the instructions of the CCK-8 kit (item number: MA0218, Meilunbio, Dalian, China) and analyzed and calculated using GraphPad Prism 8.0.1 software.

[2] = tested on: human renal cell carcinoma GRC-1; design: method as in PMID 18816120; conditions: human renal cell carcinoma GRC-1 cell line; cited from earlier work
293T = format: cell-based, human; conditions: 48 h
Description: (§1) Since the antitumor activity of natural galaxamide is good, we are interested in the antitumor potential of the obtained new analogs. To examine the anticancer activities of galaxamide and its analogs, two different human cancer cell lines, human non-small-cell lung cancer cells (A549) and human chronic myelogenous leukemia (K562), and one normal human cell line, human immortal embryonic kidney cells (293T), were selected for the in vitro cell models. […] The synthetic galaxamide (Gala01) was also tested as the standard. […] It was also found […] the best selectivity and highest safety and is thus worthy of further development for anticancer drugs for K562. A549, K562, and 293T cells were purchased from the Cell Resource Center of the Institute of Basic Medicine, Chinese Academy of Medical Sciences. Both A549 cells and K562 cells were cultured in RPMI (full name: Roswell Park Memorial Institute) 1640 medium containing 10% FBS (full name: fetal bovine serum, product number: C04001-500, Vivacell, Shanghai, China) and 1% p/s (full name: penicillin-streptomycin, product number: 15140122, Gbico, Waltham, MA, USA) for culture. The 293T cells were all cultured in DMEM (full name: Dulbecco's Modified Eagle Medium; cat. no.: C3113-0500, Vivacell, ShanghaiChina; containing 10% FBS and 1% p/s) for cultivation. […] Multiple types of cells were seeded into 96-well plates and treated with different concentrations of […]26 for 48 h after they returned to normal. Then, the relative activity of the cells was detected according to the instructions of the CCK-8 kit (item number: MA0218, Meilunbio, Dalian, China) and analyzed and calculated using GraphPad Prism 8.0.1 software.

A549 = format: cell-based, human
Description: as §1

[3] = human chronic myelogenous leukemia K562, 48 h, CCK-8, unit given in the text, not in Table 2, read-out: IC50 K562
[4] = normal human embryonic kidney cells 293T, CCK-8, NA = not determined due to low inhibitory activity, read-out: IC50 293T
[5] = human non-small-cell lung cancer cells A549, 48 h, CCK-8, unit given in the text, not in Table 2, read-out: IC50 A549

Row | Compound | IC50 (K562; [3]) | IC50 (A549; [5]) | IC50 (K562; 48 h) | IC50 (A549; 48 h) | other results
1 | CC(C)C[C@@H]1C(=O)N[C@H](CC(C)C)C(=O)N[C@H](CC(C)C)C(=O)N(C)[C@H](CC(C)C)C(=O)N[C@H](CC(C)C)C(=O)N1C [Gala01, Cyclo(Me-D-Leu-D-Leu-D-Leu-Me-D-Leu-D-Leu)] (cyclo([dL][dL][dNMeL][dL][dNMeL])) | > 80 µM | 14 µM |  |  | IC50 Hep G2 [1]: 4.63 mg/L (≈ 7.8 µM); IC50 GRC-1 [2]: 4.26 mg/L (≈ 7.17 µM); IC50 (293T; [4]): 19.9 µM
2 | CC(C)C[C@@H]1NC(=O)[C@H](CC(C)C)N(C)C(=O)[C@H](CC(C)C)NC(=O)[C@H](CC(C)C)N(C)C(=O)[C@@H](CC(C)C)NC1=O [Gala02, Cyclo(Me-L-Leu-L-Leu-D-Leu-Me-L-Leu-L-Leu)] (cyclo(L[NMeL]L[dL][NMeL])) | 8.6 µM | > 20 µM |  |  | 
3 | CC(C)C[C@@H]1NC(=O)[C@@H](CC(C)C)N(C)C(=O)[C@H](CC(C)C)NC(=O)[C@@H](CC(C)C)N(C)C(=O)[C@H](CC(C)C)NC1=O [Gala03, Cyclo(Me-D-Leu-L-Leu-L-Leu-Me-D-Leu-L-Leu)] (cyclo(LL[dNMeL]L[dNMeL])) | > 80 µM | > 20 µM |  |  | 
4 | CC(C)C[C@@H]1NC(=O)[C@@H](CC(C)C)N(C)C(=O)[C@H](CC(C)C)NC(=O)[C@@H](CC(C)C)N(C)C(=O)[C@@H](CC(C)C)NC1=O [Gala04, Cyclo(Me-D-Leu-L-Leu-D-Leu-Me-D-Leu-L-Leu)] (cyclo(L[dL][dNMeL]L[dNMeL])) | 4.19 µM and 4.2 µM | 19 µM |  |  | IC50 (293T; [4]): 16.3 µM
5 | CC(C)C[C@@H]1NC(=O)[C@@H](CC(C)C)NC(=O)[C@H](CC(C)C)N(C)C(=O)[C@@H](CC(C)C)NC(=O)[C@H](CC(C)C)N(C)C1=O [Gala05, Cyclo(Me-L-Leu-D-Leu-L-Leu-Me-L-Leu-D-Leu)] (cyclo(L[NMeL][dL][NMeL][dL])) | 10.2 µM | > 20 µM |  |  | 
6 | CC(C)C[C@H]1NC(=O)[C@H](CC(C)C)N(C)C(=O)[C@@H](CC(C)C)NC(=O)[C@H](CC(C)C)N(C)C(=O)[C@@H](CC(C)C)NC1=O [Gala06, Cyclo(Me-L-Leu-D-Leu-D-Leu-Me-L-Leu-D-Leu)] (cyclo([NMeL][dL][NMeL][dL][dL])) | 28.8 µM | > 20 µM |  |  | 
7 | CC(C)C[C@@H]1NC(=O)[C@@H](CC(C)C)NC(=O)[C@@H](CC(C)C)N(C)C(=O)[C@@H](CC(C)C)NC(=O)[C@@H](CC(C)C)N(C)C1=O [Gala07, Cyclo(Me-D-Leu-D-Leu-L-Leu-Me-D-Leu-D-Leu)] (cyclo(L[dNMeL][dL][dNMeL][dL])) | > 80 µM | > 20 µM |  |  | 
8 | CC(C)C[C@@H]1NC(=O)[C@H](CC(C)C)N(C)C(=O)[C@H](CC(C)C)NC(=O)[C@H](CC(C)C)N(C)C(=O)[C@@H](Cc2ccccc2)NC1=O [Gala09, Cyclo(Me-L-Leu-L-Leu-D-Phe-Me-L-Leu-L-Leu)] |  |  | 14.9 µM | > 20 µM | 
9 | CC(C)C[C@@H]1NC(=O)[C@H](CC(C)C)N(C)C(=O)[C@H](CC(C)C)NC(=O)[C@H](CC(C)C)N(C)C(=O)CNC1=O [Gala10, Cyclo(Me-L-Leu-L-Leu-Gly-Me-L-Leu-L-Leu)] (cyclo([NMeL]LG[NMeL]L)) |  |  | 27.2 µM | > 20 µM | 
10 | CC(C)C[C@@H]1NC(=O)[C@H](CC(C)C)N(C)C(=O)[C@H](CC(C)C)NC(=O)[C@H](CC(C)C)N(C)C(=O)[C@@H](C)NC1=O [Gala11, Cyclo(Me-L-Leu-L-Leu-D-Ala-Me-L-Leu-L-Leu)] (cyclo([NMeL]L[dA][NMeL]L)) |  |  | 33.8 µM |  | IC50 (293T): 13.3 µM
11 | COC[C@H]1NC(=O)[C@H](CC(C)C)NC(=O)[C@H](CC(C)C)N(C)C(=O)[C@H](CC(C)C)NC(=O)[C@H](CC(C)C)N(C)C1=O [Gala12, Cyclo(Me-L-Leu-L-Leu-O-Me-D-Ser-Me-L-Leu-L-Leu)] (cyclo(L[NMeL]L[dS](Me)[NMeL])) |  |  | 61.8 µM |  | IC50 (293T): 14.1 µM
12 | COc1ccc(C[C@H]2NC(=O)[C@H](CC(C)C)NC(=O)[C@H](CC(C)C)N(C)C(=O)[C@H](CC(C)C)NC(=O)[C@H](CC(C)C)N(C)C2=O)cc1 [Gala13, Cyclo(Me-L-Leu-L-Leu-O-Tyr-Me-L-Leu-L-Leu)] (cyclo(L[NMeL]L[dY](Me)[NMeL])) |  |  | > 80 µM | > 20 µM | 
13 | COC(=O)C[C@H]1NC(=O)[C@H](CC(C)C)NC(=O)[C@H](CC(C)C)N(C)C(=O)[C@H](CC(C)C)NC(=O)[C@H](CC(C)C)N(C)C1=O [Gala14, Cyclo(Me-L-Leu-L-Leu-Methylester-D-Asp-Me-L-Leu-L-Leu)] (cyclo(L[NMeL]L[dD](OMe)[NMeL])) |  |  | 29.6 µM | 20 µM | IC50 (293T): 22.2 µM
14 | CC(C)C[C@@H]1NC(=O)[C@H](CC(C)C)N(C)C(=O)[C@H](CC(C)C)NC(=O)[C@H](CC(C)C)N(C)C(=O)[C@@H](Cc2cccc(F)c2)NC1=O [Gala15, Cyclo(Me-L-Leu-L-Leu-3-Flu-D-Phe-Me-L-Leu-L-Leu)] |  |  | 13 µM | > 20 µM | 
15 | Cc1ccccc1C[C@H]1NC(=O)[C@H](CC(C)C)NC(=O)[C@H](CC(C)C)N(C)C(=O)[C@H](CC(C)C)NC(=O)[C@H](CC(C)C)N(C)C1=O [Gala16, Cyclo(Me-L-Leu-L-Leu-2-Me-D-Phe-Me-L-Leu-L-Leu)] |  |  | > 80 µM | > 20 µM | 
16 | CC(C)C[C@@H]1NC(=O)[C@H](CC(C)C)N(C)C(=O)[C@H](CC(C)C)NC(=O)[C@H](CC(C)C)N(C)C(=O)[C@@H](Cc2ccc(Cl)cc2)NC1=O [Gala17, Cyclo(Me-L-Leu-L-Leu-4-Chl-D-Phe-Me-L-Leu-L-Leu)] |  |  | 77.7 µM | > 20 µM | 
17 | CC(C)C[C@@H]1NC(=O)[C@H](CC(C)C)N(C)C(=O)[C@H](CC(C)C)NC(=O)[C@H](CC(C)C)N(C)C(=O)[C@@H](Cc2ccc(Br)cc2)NC1=O [Gala18, Cyclo(Me-L-Leu-L-Leu-4-Bro-D-Phe-Me-L-Leu-L-Leu)] |  |  | 24.2 µM |  | IC50 (293T): 14.1 µM
18 | CC(C)C[C@@H]1NC(=O)[C@H](CC(C)C)N(C)C(=O)[C@H](CC(C)C)NC(=O)[C@H](CC(C)C)N(C)C(=O)[C@@H](C2CCCCC2)NC1=O [Gala19, Cyclo(Me-L-Leu-L-Leu-D-cyclohexyl-Gly-Me-L-Leu-L-Leu)] (cyclo(L[NMeL]L[dChg][NMeL])) |  |  | 75.2 µM | > 20 µM | 
19 | CC(C)C[C@@H]1NC(=O)[C@H](CC(C)C)N(C)C(=O)[C@H](CC(C)C)NC(=O)[C@H](CC(C)C)N(C)C(=O)[C@@H](c2ccccc2)NC1=O [Gala20, Cyclo(Me-L-Leu-L-Leu-D-phenyl-Gly-Me-L-Leu-L-Leu)] (cyclo(L[NMeL]L[dPhg][NMeL])) |  |  | > 80 µM | > 20 µM | 
20 | CC(C)C[C@@H]1NC(=O)[C@H](CC(C)C)N(C)C(=O)[C@H](CC(C)C)NC(=O)[C@H](CC(C)C)N(C)C(=O)[C@@H](C(C)C)NC1=O [Gala21, Cyclo(Me-L-Leu-L-Leu-D-Val-Me-L-Leu-L-Leu)] (cyclo([NMeL]L[dV][NMeL]L)) |  |  | 49.3 µM | > 20 µM | 
21 | CSCC[C@H]1NC(=O)[C@H](CC(C)C)NC(=O)[C@H](CC(C)C)N(C)C(=O)[C@H](CC(C)C)NC(=O)[C@H](CC(C)C)N(C)C1=O [Gala22, Cyclo(Me-L-Leu-L-Leu-D-Met-Me-L-Leu-L-Leu)] (cyclo(L[NMeL]L[dM][NMeL])) |  |  | 8.5 µM |  | IC50 (293T): 12.9 µM
22 | Cc1cccc(C[C@H]2NC(=O)[C@H](CC(C)C)NC(=O)[C@H](CC(C)C)N(C)C(=O)[C@H](CC(C)C)NC(=O)[C@H](CC(C)C)N(C)C2=O)c1 [Gala23, Cyclo(Me-L-Leu-L-Leu-3-Me-D-Phe-Me-L-Leu-L-Leu)] |  |  | 6.9 µM | > 20 µM | 
23 | (−)-β-elemene [reference compound] | > 100 µM | > 100 µM |  |  | IC50 (293T; [4]): > 100 µM
